Results published in patent US8497260B2, “2-arylbenzothiophene derivatives or pharmaceutically acceptable salts thereof, preparation method thereof, and pharmaceutical composition for the diagnosis or treatment of degenerative brain disease containing the same as active ingredient” (Industry-University Cooperation Foundation Sogang University, priority 2009, dated 2013).

Molecular target: T1, β-amyloid (Aβ1-42) fibrils (Homo sapiens, UniProt P05067)
T1 construct: β-Amyloid peptide (Aβ1-42, 1 mg, Bachem); purchased Bachem
Assay: Inhibitory binding assay against [125I]TZDM on β-amyloid (Aβ1-42) fibrils
Conditions: Aβ1-42 fibrils 10 nM, [125I]TZDM 0.05 nM, 10% ethanol, room temperature 3 hours, nonspecific binding with 2 μM ThT; read-out: Ki, relative binding affinity to [125I]TZDM (112)
Description: β-Amyloid peptide (Aβ1-42, 1 mg, Bachem) was completely dissolved in 1 mL of DMSO, 9 mL of phosphate buffered saline (PBS) (pH 7.4) was added thereto and well mixed. The resulting mixture was incubated at 37° C. for 60 minutes to form β-amyloid fibrils, 0.5 mL was taken and transferred to each e-tube and placed into a refrigerator maintained at −80° C.
To determine whether β-amyloid peptide was properly formed into β-amyloid fibrils, 150 μL of 5 μM Thioflavin T (ThT) was added to 50 μL of incubated β-amyloid fibrils, the fluorescence intensity of ThT binding specifically to β-amyloid fibrils at excitation/emission wavelengths (λex/λem), e.g., 450 nm/480 nm, was detected using a spectrometer.
0.850 mL of 10% Ethanol was placed into 12 mm×75 mm borosilicate test tubes, and 50 μL of β-amyloid (Aβ1-42) fibrils were added such that the final reaction concentration became 10 nM. […] Here, the nonspecific binding was performed using 2 μM Thioflavin T (ThT).

T1 sequence (P05067 672-713 limits assumed): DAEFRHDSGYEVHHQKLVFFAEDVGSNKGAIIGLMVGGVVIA

Ki [pM] | SMILES
730 | COc1cccc2sc(-c3ccc([N+](=O)[O-])cc3)cc12 [Example 1, 2-(4-nitrophenyl)-4-methoxybenzothiophene]
650 | COc1ccc2cc(-c3cccc([N+](=O)[O-])c3)sc2c1 [Example 2, 2-(3-nitrophenyl)-6-methoxybenzothiophene]
2300 | COc1ccc2cc(-c3ccc([N+](=O)[O-])cc3)sc2c1 [Example 3, 2-(4-nitrophenyl)-6-methoxybenzothiophene]
1070 | O=[N+]([O-])c1ccc(-c2cc3ccc(O)cc3s2)cc1 [Example 4, 2-(4-nitrophenyl)-6-hydroxybenzothiophene]
510 | COc1ccc2cc(-c3ccc(N)cc3)sc2c1 [Example 8, 2-(4-aminophenyl)-6-methoxybenzothiophene]
380 | Nc1ccc(-c2cc3ccc(OCCF)cc3s2)cc1 [Example 9, 2-(4-aminophenyl)-6-(2-fluoroethoxy)benzothiophene]
640 | Nc1ccc(-c2cc3ccc(OCCCF)cc3s2)cc1 [Example 10, 2-(4-aminophenyl)-6-(3-fluoropropoxy)benzothiophene]
430 | CNc1ccc(-c2cc3ccc(OC)cc3s2)cc1 [Example 11, 2-[4-(N-monomethylamino)phenyl]-6-methoxybenzothiophene]
64 | CNc1ccc(-c2cc3ccc(OCCF)cc3s2)cc1 [Example 12, 2-[4-(N-monomethylamino)phenyl]-6-(2-fluoroethoxy)benzothiophene]
270 | CNc1ccc(-c2cc3ccc(OCCCF)cc3s2)cc1 [Example 13, 2-[4-(N-monomethylamino)phenyl]-6-(3-fluoropropoxy)benzothiophene]
770 | COc1cccc2sc(-c3ccc(N(C)C)cc3)cc12 [Example 14, 2-[4-(N,N-dimethylamino)phenyl]-4-methoxybenzothiophene]
1580 | COc1ccc2cc(-c3ccc(N(C)C)cc3)sc2c1 [Example 15, 2-[4-(N,N-dimethylamino)phenyl]-6-methoxybenzothiophene]
79 | CN(C)c1ccc(-c2cc3ccc(OCCF)cc3s2)cc1 [Example 16, 2-[4-(N,N-dimethylamino)phenyl]-6-(2-fluoroethoxy)benzothiophene]
7410 | CN(C)c1ccc(-c2cc3ccc(OCCCF)cc3s2)cc1 [Example 17, 2-[4-(N,N-dimethylamino)phenyl]-6-(3-fluoropropoxy)benzothiophene]
90 | COc1ccc2cc(-c3ccc(OCCF)nc3)sc2c1 [Example 18, 2-[2-(2-fluoroethoxy)pyridine-5-yl]-6-methoxybenzothiophene]
390 | COc1ccc2cc(-c3ccc(OCCCF)nc3)sc2c1 [Example 19, 2-[2-(3-fluoropropoxy)pyridine-5-yl]-6-methoxybenzothiophene]
1320 | COc1ccc(-c2cc3ccc(OCCF)cc3s2)cn1 [Example 20, 2-(2-methoxypyridine-5-yl)-6-(2-fluoroethoxy)benzothiophene]
1110 | Nc1ccc(-c2cc3ccc(OCCF)cc3s2)cn1 [Example 21, 2-(2-aminopyridine-5-yl)-6-(2-fluoroethoxy)benzothiophene]
460 | CNc1ccc(-c2cc3ccc(OCCF)cc3s2)cn1 [Example 22, 2-[2-(N-monomethylamino)pyridine-5-yl]-6-(2-fluoroethoxy)benzothiophene]
720 | CN(C)c1ccc(-c2cc3ccc(OCCF)cc3s2)cn1 [Example 23, 2-[2-(N,N-dimethylamino)pyridine-5-yl]-6-(2-fluoroethoxy)benzothiophene]
1180 | Nc1ccc(-c2cc3ccc(OCCCF)cc3s2)cn1 [Example 24, 2-(2-aminopyridine-5-yl)-6-(3-fluoropropoxy)benzothiophene]
60 | CNc1ccc(-c2cc3ccc(OCCCF)cc3s2)cn1 [Example 25, 2-[2-(N-monomethylamino)pyridine-5-yl]-6-(3-fluoropropoxy)benzothiophene]
90 | CN(C)c1ccc(-c2cc3ccc(OCCCF)cc3s2)cn1 [Example 26, 2-[2-(N,N-dimethylamino)pyridine-5-yl]-6-(3-fluoropropoxy)benzothiophene]

Ki [pM] | SMILES
830 | COc1ccc2cc(-c3ccnc(OCCF)c3)sc2c1 [Example 27, 2-[2-(2-fluoroethoxy)pyridine-4-yl]-6-methoxybenzothiophene]
100 | COc1ccc2cc(-c3ccnc(OCCCF)c3)sc2c1 [Example 28, 2-[2-(3-fluoropropoxy)pyridine-4-yl]-6-methoxybenzothiophene]
790 | COc1cc(-c2cc3ccc(OCCCF)cc3s2)ccn1 [Example 30, 2-(2-methoxypyridine-4-yl)-6-(3-fluoropropoxy)benzothiophene]
610 | COc1ccc2cc(-c3ccnc(OCCF)n3)sc2c1 [Example 31, 2-[2-(2-fluoroethoxy)pyrimidine-4-yl]-6-methoxybenzothiophene]
460 | COc1ccc2cc(-c3ccnc(OCCCF)n3)sc2c1 [Example 32, 2-[2-(3-fluoropropoxy)pyrimidine-4-yl]-6-methoxybenzothiophene]
530 | COc1ccc2cc(-c3ccnc(NCCF)n3)sc2c1 [Example 33, 2-[2-(N-(2-fluoroethyl)amino)pyrimidine-4-yl]-6-methoxybenzothiophene]
470 | COc1nccc(-c2cc3ccc(OCCF)cc3s2)n1 [Example 34, 2-(2-methoxypyrimidine-4-yl)-6-(2-fluoroethoxy)benzothiophene]
550 | CNc1nccc(-c2cc3ccc(OCCF)cc3s2)n1 [Example 35, 2-[2-(N-monomethylamino)pyrimidine-4-yl]-6-(2-fluoroethoxy)benzothiophene]
440 | COc1nccc(-c2cc3ccc(OCCCF)cc3s2)n1 [Example 37, 2-(2-methoxypyrimidine-4-yl)-6-(3-fluoropropoxy)benzothiophene]
530 | CNc1ccnc(-c2cc3ccc(OCCF)cc3s2)n1 [Example 41, 2-[4-(N-monomethylamino)pyrimidine-2-yl]-6-(2-fluoroethoxy)benzothiophene]
250 | CN(C)c1ccnc(-c2cc3ccc(OCCF)cc3s2)n1 [Example 42, 2-[4-(N,N-dimethylamino)pyrimidine-2-yl]-6-(2-fluoroethoxy)benzothiophene]
370 | CNc1ccnc(-c2cc3ccc(OCCCF)cc3s2)n1 [Example 43, 2-[4-(N-monomethylamino)pyrimidine-2-yl]-6-(3-fluoropropoxy)benzothiophene]
65 | COc1ccc2cc(-c3ccc(OCCF)nn3)sc2c1 [Example 44, 2-[3-(2-fluoroethoxy)pyridazine-6-yl]-6-methoxybenzothiophene]
1000 | COc1ccc2cc(-c3ccc(OCCCF)nn3)sc2c1 [Example 45, 2-[3-(3-fluoropropoxy)pyridazine-6-yl]-6-methoxybenzothiophene]
440 | Nc1ccc(-c2cc3ccc(OCCF)cc3s2)nn1 [Example 47, 2-(3-aminopyridazine-6-yl)-6-(2-fluoroethoxy)benzothiophene]
300 | CNc1ccc(-c2cc3ccc(OCCF)cc3s2)nn1 [Example 48, 2-[3-(N-monomethylamino)pyridazine-6-yl]-6-(2-fluoroethoxy)benzothiophene]
430 | CN(C)c1ccc(-c2cc3ccc(OCCF)cc3s2)nn1 [Example 49, 2-[3-(N,N-dimethylamino)pyridazine-6-yl]-6-(2-fluoroethoxy)benzothiophene]
180 | COc1ccc(-c2cc3ccc(OCCCF)cc3s2)nn1 [Example 50, 2-(3-methoxypyridazine-6-yl)-6-(3-fluoropropoxy)benzothiophene]
380 | Nc1ccc(-c2cc3ccc(OCCCF)cc3s2)nn1 [Example 51, 2-(3-aminopyridazine-6-yl)-6-(3-fluoropropoxy)benzothiophene]
550 | CNc1ccc(-c2cc3ccc(OCCCF)cc3s2)nn1 [Example 52, 2-[3-(N-monomethylamino)pyridazine-6-yl]-6-(3-fluoropropoxy)benzothiophene]
650 | CN(C)c1ccc(-c2cc3ccc(OCCCF)cc3s2)nn1 [Example 53, 2-[3-(N,N-dimethylamino)pyridazine-6-yl]-6-(3-fluoropropoxy)benzothiophene]
450 | COc1ccc2cc(-c3cncc(OCCCF)n3)sc2c1 [Example 55, 2-[2-(3-fluoropropoxy)pyrazine-6-yl]-6-methoxybenzothiophene]

Test system: not given
Assay: not given
Conditions: not given

melting point [°C] | SMILES
265 to 265.2 | O=[N+]([O-])c1ccc(-c2cc3ccc(O)cc3s2)cc1 [Example 4, 2-(4-nitrophenyl)-6-hydroxybenzothiophene]
119.6 to 123.2 | Nc1ccc(-c2cc3ccc(OCCCF)cc3s2)cc1 [Example 10, 2-(4-aminophenyl)-6-(3-fluoropropoxy)benzothiophene]
156.9 to 159.7 | CNc1ccc(-c2cc3ccc(OCCF)cc3s2)cc1 [Example 12, 2-[4-(N-monomethylamino)phenyl]-6-(2-fluoroethoxy)benzothiophene]
121.4 to 123.1 | CNc1ccc(-c2cc3ccc(OCCCF)cc3s2)cc1 [Example 13, 2-[4-(N-monomethylamino)phenyl]-6-(3-fluoropropoxy)benzothiophene]
183.9 to 195.9 | CN(C)c1ccc(-c2cc3ccc(OCCF)cc3s2)cc1 [Example 16, 2-[4-(N,N-dimethylamino)phenyl]-6-(2-fluoroethoxy)benzothiophene]
177.7 to 183 | CN(C)c1ccc(-c2cc3ccc(OCCCF)cc3s2)cc1 [Example 17, 2-[4-(N,N-dimethylamino)phenyl]-6-(3-fluoropropoxy)benzothiophene]

Molecular target: β-amyloid deposits
Assay: not given
Conditions: values from cited documents; read-out: binding affinity (Ki); cited from earlier work

SMILES | Ki [pM]
[11CH3]Nc1ccc(-c2nc3ccc(O)cc3s2)cc1 [Control Group] | 2800
CC(=C(C#N)C#N)c1ccc2cc(N(C)CCF)ccc2c1 [[^18F]FDDNP] | 120
CN(C)c1ccc(-c2cn3cc(I)ccc3n2)cc1 [[^123I/^125I]IMPY] | 15000
